The inhibition is how much of the control response was suppressed. Low readings indicate little suppression, high ones strong suppression. Usually IC50 stands for the concentration that gives 50% inhibition.

Several values for one entry are separate records, joined by “and”; a condition that tells them apart may be missing. Equal values may be shown once.

Assay [1] has as its target rLmLAP (Leishmania major, UniProt Q7KF27). The assay is described as follows: RapidFire-MS aminopeptidase activity assay: inhibition of rLmLAP (LSTVIVR substrate). In kind it is biochemical. The note with it: for IC50: RapidFire-MS, 5 nM enzyme, 10 μM LSTVIVR, 20 min preincubation, 0.195-100 μM, mean ± standard error (n = 3). The method, then:
Assays were carried out as previously described,[24] with some differences indicated below. The reaction mix consisted of 0 nM (control) and 30 nM rLmLAP in 1× PBS, pH 7.0, 0.005% (v/v) NP-40, plus 7.5 μL of LSTVIVR substrate peptide in the same buffer. For product quantification, the peak areas of the LSTVIVR peptide were integrated with respect to the internal standard LSTVIVR* peptide. The C-terminal arginine was chosen because this amino acid is amenable to isotopic labeling.[45]
rLmLAP was assayed at 5 nM with 10 μM (1× appKM) of LSTVIVR substrate peptide. The enzyme was preincubated with bestatin or DMSO for 20 min. Bestatin was prepared at 10 concentrations in DMSO, covering the range from 0.39 to 100 μM. […] The remaining experimental conditions were maintained, as described above.
A high-throughput screen was conducted against rLmLAP using 3,383 compounds with known protease inhibitor motifs. The compounds were dispensed onto plates using an ECHO 550 acoustic dispenser (Labcyte, Sunnyvale, CA). The enzyme was assayed at 5 nM with 10 μM (1× appKM) LSTVIVR substrate for 60 min. Before adding the substrate, the enzyme was preincubated with 45 nL of the compounds or DMSO for 20 min. Compounds, dissolved in DMSO, were tested at 30 μM. […] No replicates were performed for each inhibitor in this experiment. The remaining experimental conditions were kept constant as described above. The ActivityBase program from IDBS provider (https://www.idbs.com) was used to process and analyze the data. Selection criteria for potential inhibitors in this screen required an inhibition percentage greater than the mean (calculated from the inhibition percentages of all the inhibitors) plus three standard deviations (SD). All compounds were purchased commercially and are >95% pure by HPLC.
To obtain IC50 data for screen-detected rLmLAP inhibitors at a single concentration, ten-point concentration–response curves were generated for selected inhibitors showing greater than mean ±3 SD inhibition. The curves were prepared in 384-well plates with a maximum concentration of 100 μM and 1:2 serial dilutions in DMSO (0.195–100 μM) using an ECHO 550 acoustic dispenser. All other experimental conditions were as described above for RapidFire-MS optimization. Three replicates of each concentration of inhibitor were evaluated. The IC50 value was calculated by nonlinear fitting of a four-parameter logistic function to the experimental data. Curve fitting and IC50 calculations were performed using IDBS ActivityBase XE version 9.2.0.106. Inhibitory activity was determined using the peak area ratio, calculated as the reaction product (STVIVR) divided by its internal standard (*LSTVIVR). The peak area ratio of the reaction without enzyme was defined as 100% inhibitory activity, and that of the complete reaction mixture was defined as 0% inhibitory activity. At least three replicates were generated for each hit compound.

The target in assay [2] is T1, rHsLAP (Homo sapiens, UniProt P28838).
T1 construct: purchased Assay Genie, Ireland
T1 sequence (P28838 whole entry): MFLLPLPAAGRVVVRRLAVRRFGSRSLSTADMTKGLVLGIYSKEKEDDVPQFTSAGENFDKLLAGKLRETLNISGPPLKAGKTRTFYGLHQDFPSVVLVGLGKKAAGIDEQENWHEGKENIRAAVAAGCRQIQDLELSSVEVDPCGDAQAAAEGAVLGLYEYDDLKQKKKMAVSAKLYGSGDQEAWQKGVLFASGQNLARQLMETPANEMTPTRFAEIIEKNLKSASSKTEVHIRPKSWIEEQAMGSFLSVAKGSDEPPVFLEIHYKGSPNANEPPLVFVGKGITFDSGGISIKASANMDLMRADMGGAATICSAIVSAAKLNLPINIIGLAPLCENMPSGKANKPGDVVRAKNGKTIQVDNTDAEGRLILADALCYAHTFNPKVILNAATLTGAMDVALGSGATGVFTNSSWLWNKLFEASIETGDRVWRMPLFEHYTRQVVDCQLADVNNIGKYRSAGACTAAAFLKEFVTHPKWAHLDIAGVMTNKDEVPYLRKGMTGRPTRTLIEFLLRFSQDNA
Kind of assay: RapidFire-MS selectivity study against human LAP. In kind it is biochemical. The note with it: for IC50: 150 nM rHsLAP, 600 μM LSTVIVR, 1 mM ZnCl2, 180 min. How it is done: The reaction mixture included 600 μM (1× appKM) LSTVIVR substrate peptide, 1 mM ZnCl2, and the reaction time was 180 min. The inhibitors were tested at concentrations ranging from 0.78 to 100 μM to determine inhibitory activity.

Assay [3] has as its system LmjF.11.0630 (metallo-peptidase, Clan MF, Family M17). Kind of assay: Isothermal TPP (iTPP) thermal stabilization, LmjF.11.0630. In kind it is binding, Leishmania major. The settings on record: L. major promastigote lysate, 47 °C, compound at 10× EC50 vs DMSO. How it is done:
(§1) Cell lysates were obtained as detailed above. Isothermal TPP assays were performed as previously described[29] but here lysates were incubated at two temperatures: 28 and 47 °C. The first temperature (28 °C) acts as a control temperature at which the protein levels are not altered by the presence of the test compound. The second temperature (47 °C) is the Leishmania spp. median Tm (melting temperature or temperature 50%) according to our interim data. […] These samples were aliquoted and submitted to a temperature shock at the designated temperature for 3 min, then 3 min at room temperature, and finally 3 min on ice. The soluble part was isolated by ultracentrifugation (100,000g, 20 min, 4 °C).
(§2) All aspects of sample processing, TMT-labeling, fractionation by HPLC into 10 fractions, LC-MS/MS, and protein identification and quantitation were described previously.[28],[68] Proteins with less than three peptides and those with increased stability at 28 °C were disregarded.
(§3) Proteins were identified by searching the MS and MS/MS data for the peptides against L. major strain Friedlin (TriTryp version 61, tritrypdb.org) using MaxQuant (http://maxquant.org/, version 2.1.4.0). All proteomics data sets have been deposited to the ProteomeXchange Consortium via the PRIDE[69] partner repository with the identifier PXD00000. Data were analyzed with Perseus v 1.6.15.[70] The reporter intensities of each protein were extracted and normalized to the control temperature reporter intensity (28 °C), then these normalized values were used to calculate the log2 transformed fold-changes (FC) of […] samples. Proteins stabilized (log2 FC > 1 in both replicates) were selected as putative hits.

The test system of assay [4] is LmjF.35.1670 (60S ribosomal protein L26, putative). Kind of assay: Isothermal TPP (iTPP) thermal stabilization, LmjF.35.1670. The settings on record: L. major promastigote lysate, 47 °C, compound at 10× EC50 vs DMSO. In kind it is binding, Leishmania major. How it is done: as §1, §2, §3
Assay [5] has as its system LmLAP-overexpressing L. major promastigotes. In kind it is cell-based, Leishmania major. The note with it: compound at EC50, 72 h, n = 70 cells per condition. The method, then:
L. major promastigotes (WT and LmLAP OE) were grown in supplemented HOMEM media as described above, in T25 flasks. […] L. major WT cells were grown at control conditions. Briefly, cells were fixed directly in culture media with 3% (v/v) paraformaldehyde for 15 min at room temperature, washed three times with excess D-PBS, permeabilized with 0.2% Triton X-100 (v/v) in PBS for 5 min, and washed three times in excess PBS. Slides were mounted with mounting medium with DAPI (Vectashield Lab H-1000–10). Microscopy was carried out on a Zeiss microscope and images captured using software Zen Blue (Zeiss). Analysis of images and figure preparation were made in Omero.[71]

Chain of rLmLAP (Q7KF27 entry or part of it): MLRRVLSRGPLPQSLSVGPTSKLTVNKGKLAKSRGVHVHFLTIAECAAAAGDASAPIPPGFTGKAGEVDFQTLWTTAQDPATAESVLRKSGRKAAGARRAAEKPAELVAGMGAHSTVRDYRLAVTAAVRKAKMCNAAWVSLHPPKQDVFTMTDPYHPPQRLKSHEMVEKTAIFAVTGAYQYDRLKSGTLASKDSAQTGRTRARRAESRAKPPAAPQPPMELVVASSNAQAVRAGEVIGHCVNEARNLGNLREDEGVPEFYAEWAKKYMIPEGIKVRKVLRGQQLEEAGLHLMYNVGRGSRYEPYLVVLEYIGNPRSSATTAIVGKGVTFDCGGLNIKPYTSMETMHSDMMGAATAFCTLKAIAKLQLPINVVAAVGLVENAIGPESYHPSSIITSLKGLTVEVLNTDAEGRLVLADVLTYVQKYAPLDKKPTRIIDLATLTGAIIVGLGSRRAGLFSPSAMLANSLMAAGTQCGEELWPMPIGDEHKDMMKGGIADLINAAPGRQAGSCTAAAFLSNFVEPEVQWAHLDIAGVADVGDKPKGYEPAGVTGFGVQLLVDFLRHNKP

With `COc1ccc(Cc2c(N)nc(-c3ccccn3)nc2N)cc1` [DDD00057570], in assay [1], the inhibition at 100 µM amounted to 99%; the IC50 was 3.3 µM and 3 µM. In assay [2], this compound gave an inhibition at 100 µM of 35% and an IC50 of over 100 µM. Further, in assay [3], the “Enrichment (log2) replica A, LmjF.11.0630” value is recorded as 1.47 log2 and the “Enrichment (log2) replica B, LmjF.11.0630” value is recorded as 1.34 log2. Moreover, in assay [4], the “Enrichment (log2) replica A, LmjF.35.1670” value stood at 1.36 log2 and the “Enrichment (log2) replica B, LmjF.35.1670” value was 1.64 log2. Besides, in assay [5], the “Frequency of elongated 1K1N1F forms in LmLAP-overexpressing cells” value is listed as about 36%.

Turning to `O=C(c1cccs1)N(CCCn1ccnc1)c1nc2ccccc2s1` [DDD00097924], in assay [1], the inhibition at 100 µM was 75%; the IC50 was 30.9 µM and 31 µM. In assay [1] (DDD00097924 relative to DDD00057570), the “Experimental ΔΔG” value amounted to 5.44 kJ/mol. In assay [2], this compound came in with an inhibition at 100 µM of 62% and an IC50 of 98 µM. In addition, in assay [3], the “Enrichment (log2) replica A, LmjF.11.0630” value was determined as 2.19 log2 and the “Enrichment (log2) replica B, LmjF.11.0630” value is 1.99 log2. Moreover, in assay [4], the “Enrichment (log2) replica A, LmjF.35.1670” value was found to be 1.71 log2 and the “Enrichment (log2) replica B, LmjF.35.1670” value was found to be 1.97 log2. The “Frequency of elongated 1K1N1F forms in LmLAP-overexpressing cells” value in assay [5] is on record as about 36%.

Values taken from article PMC11184559, “Identification and Validation of Compounds Targeting Leishmania major Leucyl-Aminopeptidase M17” (ACS Infectious Diseases, 2024).
